# Legend:
# Salmonella choleraesuis = assay: MBEC device biofilm photodynamic killing (Example 1); type: cell-based; design: key to Killing of Salmonella cholerasuis biofilm (eradication or growth): “−” = biofilm eradication at the mentioned conditions (concentration, exposure time and Light source); “+” = biofilm growth; settings: for Killing of Salmonella cholerasuis biofilm (eradication or growth): 16 Hours exposure; for effective as photodynamic agent in killing biofilm organisms: Salmonella choleraesuis and Staphylococcus aureus biofilm, summary of Table 1
# Description: (§1) Test microorganisms included Salmonella choleraesuis, Staphylococcus aureus, foodborne pathogens of humans. Test Compounds included Methylene blue, Hemoglobin (blood product), Hemin (blood product), Protoporphyrin (blood product), Annatto Extract (15% Norbixin), beet juice, Canthaxanthin (10%), Beta-carotene (1%), Purple carmine 50%, Carmine lake 60%, Black Carrot extract, Tomato lycopene (5%), sodium copper chlorophyllin, grape skin extract, paprika oleoresin, riboflavin, saffron, titanium dioxide, FD&C blue No1., turmeric oleoresin, FD&C blue No. 2, FD&C Green No. 3, FD&C Red No. 2 (Amaranth), FD&C Red No. 40, FD&C Yellow No. 5, and FD&C Yellow No. 6. Compounds were prepared as 1%, 0.1%, 0.01%, by weight, dissolved in water.
# (§2) The light source was a full spectrum fluorescent light or LED light and the contact time was 1 and 16 hours. The study temperature was 37° C.
# (§3) Approximately 10^6 organisms in 150 uL Cation Adjusted Mueller Hinton Broth (CAMHB) were placed in each of the wells of a 96 peg MBEC device. The lid of the 96 peg MBEC device was placed on the bottom plate containing organism. The device was placed on a shaker, set to 110 rpm, and incubated at 37° C. for 24 hours to produce biofilms.
# (§4) The challenge plates were set up using a sterile 96-well microtitre plate using aseptic techniques in the following manner (one organism per plate, per light exposure time, per light source). Test solutions (200 uL) were placed into each well. The lid was transferred to the challenge plate and exposed to the various light sources for the prescribed exposure times (16 hours). Following the treatment, the pegs were transferred to the recovery media (“recovery plate”) then wrapped in tin foil and incubated at 37° C. for 18 to 24 hours. The recovery plate(s) was wrapped in tin foil, incubated at 37° C. for 24 hours and read visually and by a plate reader, set to an optical density measurement of 630 nm, to determine Minimum Biofilm Eradication Concentration (MBEC) by looking at growth or no growth.
# Staphylococcus aureus = assay: as above; type: cell-based; design: key to Killing of Staph aureus biofilm (eradication or growth): “−” = biofilm eradication at the mentioned conditions (concentration, exposure time and Light source); “+” = biofilm growth; settings: 16 Hours exposure
# Description: as §1, §2, §3, §4
Molecule,"Killing of Salmonella cholerasuis biofilm (eradication or growth) (Salmonella choleraesuis; Fluorescent Light, 0.01%)","Killing of Salmonella cholerasuis biofilm (eradication or growth) (Salmonella choleraesuis; Fluorescent Light, 0.1%)","Killing of Salmonella cholerasuis biofilm (eradication or growth) (Salmonella choleraesuis; Fluorescent Light, 1%)","Killing of Salmonella cholerasuis biofilm (eradication or growth) (Salmonella choleraesuis; LED Light, 0.01%)","Killing of Salmonella cholerasuis biofilm (eradication or growth) (Salmonella choleraesuis; LED Light, 0.1%)","Killing of Salmonella cholerasuis biofilm (eradication or growth) (Salmonella choleraesuis; LED Light, 1%)",effective as photodynamic agent in killing biofilm organisms (Salmonella choleraesuis),"Killing of Staph aureus biofilm (eradication or growth) (Staphylococcus aureus; Fluorescent Light, 0.01%)","Killing of Staph aureus biofilm (eradication or growth) (Staphylococcus aureus; Fluorescent Light, 0.1%)","Killing of Staph aureus biofilm (eradication or growth) (Staphylococcus aureus; Fluorescent Light, 1%)","Killing of Staph aureus biofilm (eradication or growth) (Staphylococcus aureus; LED Light, 0.01%)","Killing of Staph aureus biofilm (eradication or growth) (Staphylococcus aureus; LED Light, 0.1%)","Killing of Staph aureus biofilm (eradication or growth) (Staphylococcus aureus; LED Light, 1%)"
"CCN(Cc1cccc(S(=O)(=O)[O-])c1)c1ccc(C(=C2C=CC(=[N+](CC)Cc3cccc(S(=O)(=O)[O-])c3)C=C2)c2ccccc2S(=O)(=O)[O-])cc1.[Na+].[Na+] [Blue No. 1, FD&C blue No1.]",−,−,−,+,+,+,Effective,+,+,+,+,+,+
"O=C1/C(=C2\Nc3ccc(S(=O)(=O)[O-])cc3C2=O)Nc2ccc(S(=O)(=O)[O-])cc21.[Na+].[Na+] [Blue No. 2, FD&C blue No. 2]",+,+,+,+,+,+,,+,+,+,+,+,+
CC1=C(/C=C/C(C)=C/C=C/C(C)=C/C=C/C=C(C)/C=C/C=C(C)/C=C/C2=C(C)C(=O)CCC2(C)C)C(C)(C)CCC1=O [Canthaxanthin],+,+,+,+,+,+,,+,+,+,+,+,+
"CCN(Cc1cccc(S(=O)(=O)[O-])c1)c1ccc(C(=C2C=CC(=[N+](CC)Cc3cccc(S(=O)(=O)[O-])c3)C=C2)c2ccc(O)cc2S(=O)(=O)[O-])cc1.[Na+].[Na+] [Green No. 3, FD&C Green No. 3]",+,+,+,+,+,+,,+,+,+,+,+,+
"O=S(=O)([O-])c1ccc2c(N=Nc3ccc(S(=O)(=O)[O-])c4ccccc34)c(O)c(S(=O)(=O)[O-])cc2c1.[Na+].[Na+].[Na+] [Red No. 2, FD&C Red No. 2 (Amaranth)]",+,+,+,+,+,+,,+,+,+,+,+,+
"COc1cc(S(=O)(=O)[O-])c(C)cc1N=Nc1c(O)ccc2cc(S(=O)(=O)[O-])ccc12.[Na+].[Na+] [Red No. 40, FD&C Red No. 40]",+,+,+,+,+,+,,+,+,+,+,+,+
"Cc1cc2nc3c(=O)[nH]c(=O)nc-3n(C[C@H](O)[C@H](O)[C@H](O)CO)c2cc1C [Riboflavin, riboflavin]",+,+,+,+,+,+,,+,+,+,+,+,+
"O=C([O-])C1=NN(c2ccc(S(=O)(=O)[O-])cc2)C(=O)C1N=Nc1ccc(S(=O)(=O)[O-])cc1.[Na+].[Na+].[Na+] (centres unmarked) [Yellow No. 5, FD&C Yellow No. 5]",+,+,+,+,+,+,,+,+,+,+,+,+
"O=S(=O)([O-])c1ccc(N=Nc2c(O)ccc3cc(S(=O)(=O)[O-])ccc23)cc1.[Na+].[Na+] [Yellow No. 6, FD&C Yellow No. 6]",+,+,+,+,+,+,,+,+,+,+,+,+
"CC1=C(/C=C/C(C)=C/C=C/C(C)=C/C=C/C=C(C)/C=C/C=C(C)/C=C/C2=C(C)CCCC2(C)C)C(C)(C)CCC1 [β-Carotene, Beta-carotene]",+,+,+,+,+,+,,+,+,+,+,+,+
Hemoglobin: Hemoglobin (blood product),−,−,−,+,+,+,Effective,+,+,+,+,+,+
